Measured values published in EPA's ToxRefDB 2.

Columns and labels:
dog [1] = details: Chronic toxicity, beagle, Oral, Feed, dose end: 52 week, group: systemic
mouse [2] = details: Subchronic oral toxicity in rodents, cd1, Feed, dose end: 90 day, group: systemic
rat [3] = details: Subchronic oral toxicity in rodents, sprague dawley, Feed, dose end: 90 day, group: systemic
mouse [4] = details: Carcinogenicity; cd1; Oral; Feed; dose end: 80 week; group: systemic; systemic / in life observation / body weight / body weight + systemic / in life observation / body weight / body weight gain + systemic / …
rat [5] = details: Combined chronic toxicity/carcinogenicity, sprague dawley, Oral, Feed, dose end: 2 year, group: systemic
rat [6] = details: Multigenerational reproductive toxicity study, sprague dawley, Oral, Feed, dose end: 2 generation
rat [7] = details: Multigenerational reproductive toxicity study, sprague dawley, Oral, Feed, dose end: 2 generation; remark: listed apart in the source
mouse [8] = details: Subchronic oral toxicity in rodents, cd1, Feed, dose end: 13 week, group: systemic
rat [9] = details: Combined chronic toxicity/carcinogenicity, sprague dawley, Oral, Feed, dose end: 104 week, group: systemic
rat [10] = details: Subchronic oral toxicity in rodents, sprague dawley, Feed, dose end: 13 week, group: systemic, systemic / clinical chemistry / globulins / globulins + systemic / clinical chemistry / protein / protein + systemic / organ weight / liver…
rabbit = details: Prenatal developmental toxicity study, other, Oral, Gavage/Intubation, dose end: 18 GD
dog [11] = details: Subchronic oral toxicity in nonrodent, beagle, Feed, dose end: 13 week, group: systemic
[12] = systemic / in life observation / food consumption / food consumption
[13] = systemic / in life observation / body weight / body weight + systemic / in life observation / body weight / body weight gain + systemic / in…
[14] = systemic / in life observation / body weight / body weight + systemic / in life observation / body weight / body weight gain + systemic / …
[15] = systemic / organ weight / kidney / absolute + systemic / organ weight / kidney / relative to brain weight
[16] = systemic / organ weight / kidney / absolute + systemic / organ weight / kidney / relative to brain weight + systemic / pathology microscopic…
[17] = group: offspring, systemic / in life observation / body weight / offspring (pup) weight
[18] = group: offspring, systemic / in life observation / body weight / offspring (pup) weight + systemic / in life observation / body weight / offspring (pup) …
[19] = group: parental, systemic / in life observation / body weight / body weight + systemic / in life observation / body weight / body weight gain + systemic / in…
[20] = group: offspring, developmental / offspring survival late / viability index / viability index + systemic / in life observation / body weight / offspring (pup…
[21] = group: parental, systemic / organ weight / adrenal gland / relative to body weight + systemic / organ weight / adrenal gland / relative to brain weight
[22] = group: parental, systemic / organ weight / adrenal gland / relative to body weight + systemic / organ weight / adrenal gland / relative to brain weight + …
[23] = systemic / clinical chemistry / alkaline phosphatase (alp/alk) / alkaline phosphatase (alp/alk) + systemic / organ weight / liver / absolute…
[24] = systemic / in life observation / clinical signs / tooth-malocclusion
[25] = group: developmental, developmental / developmental malformation / bone / full supernumerary
[26] = group: maternal, systemic / in life observation / body weight / body weight gain + systemic / in life observation / food consumption / food consumption + …
[27] = systemic / clinical chemistry / triglycerides / triglycerides + systemic / in life observation / clinical signs / mucoid stools + systemic…
[28] = systemic / in life observation / clinical signs / vomiting

Work on `CCCOC(=O)c1ccc(C(=O)OCCC)nc1` [Dipropyl pyridine-2,5-dicarboxylate] yielded an LOAEL (dog [1]; systemic / in life observation / body weight / body weight gain) of 148 mg/kg/day, an NOAEL (dog [1]; systemic / in life observation / body weight / body weight gain + systemic / in life observation / body weight / body weight + systemic / in…) of 34.3 mg/kg/day and an LEL (dog [1]; [12]) of 8.12 mg/kg/day. The NEL (dog [1]; [12]) was under 8.12 mg/kg/day, the LOAEL (mouse [2]; [13]) was 2000 mg/kg/day and the NOAEL (mouse [2]; [13]) was 1000 mg/kg/day. The LEL (mouse [2]; systemic / organ weight / kidney / absolute + systemic / organ weight / kidney / relative to body weight) was 500 mg/kg/day, the NEL (mouse [2]; systemic / organ weight / kidney / relative to body weight + systemic / organ weight / liver / relative to body weight) was 250 mg/kg/day and the LEL (rat [3]; systemic / hematology / hematocrit (hct) / hematocrit (hct)) was 500 mg/kg/day. For the same compound, the LOAEL (rat [3]; [14]) was 1000 mg/kg/day, the NEL (rat [3]; [14]) was 250 mg/kg/day and the NOAEL (rat [3]; [14]) was 500 mg/kg/day. It also gave an LEL (mouse [4]) of 494 mg/kg/day, an LOAEL (mouse [4]) of 494 mg/kg/day and an NEL (mouse [4]) of 124 mg/kg/day. For the same compound, the NOAEL (mouse [4]) was 124 mg/kg/day, the LEL (rat [5]; [15]) was 250 mg/kg/day and the LOAEL (rat [5]; [15]) was 250 mg/kg/day. For the same compound, the NEL (rat [5]; [16]) was 65 mg/kg/day, the NOAEL (rat [5]; [16]) was 65 mg/kg/day and the LEL (rat [6]; [17]) was 289 mg/kg/day. The LOAEL (rat [6]; [17]) was 289 mg/kg/day, the NEL (rat [6]; [18]) was 72.9 mg/kg/day and the NOAEL (rat [6]; [18]) was 72.9 mg/kg/day. The LOAEL (rat [6]; [19]) was 1020 mg/kg/day, the NEL (rat [6]; [19]) was 66 mg/kg/day and the NOAEL (rat [6]; [19]) was 255 mg/kg/day. The LEL (rat [6]; group: parental, systemic / in life observation / food consumption / food consumption) was 255 mg/kg/day.
For `CCOc1cc(C(C)(C)C)ccc1C1COC(c2c(F)cccc2F)=N1` (stereo not given) [Etoxazole], the LOAEL (rat [7]; group: offspring, developmental / offspring survival late / viability index / viability index) was 157 mg/kg/day, the LEL (rat [7]; [20]) was 157 mg/kg/day and the NEL (rat [7]; [20]) was 31.6 mg/kg/day. It also gave an NOAEL (rat [7]; [20]) of 31.6 mg/kg/day, an NEL (rat [7]; [21]) of 33.4 mg/kg/day and an NOAEL (rat [7]; [21]) of 33.4 mg/kg/day. It also gave an LEL (rat [7]; [22]) of 139 mg/kg/day, an LOAEL (rat [7]; [22]) of 139 mg/kg/day and an LOAEL (mouse [8]; [23]) of 878 mg/kg/day. For the same compound, the NEL (mouse [8]; [23]) was 55.1 mg/kg/day, the NOAEL (mouse [8]; [23]) was 214 mg/kg/day and the LEL (mouse [8]; systemic / organ weight / liver / absolute + systemic / organ weight / liver / relative to body weight + systemic / pathology microscopic / …) was 214 mg/kg/day. The LOAEL (rat [9]; systemic / in life observation / clinical signs / tooth nos) was 187 mg/kg/day, the NOAEL (rat [9]; systemic / in life observation / clinical signs / tooth nos + systemic / hematology / blood clotting / blood clotting - activated partial …) was 1.83 mg/kg/day and the LEL (rat [9]; [24]) was 2.07 mg/kg/day. It also gave an NEL (rat [9]; [24]) of under 2.07 mg/kg/day, an LEL (rat [10]) of 300 mg/kg/day and an LOAEL (rat [10]) of 300 mg/kg/day. It also gave an NEL (rat [10]) of under 300 mg/kg/day, an NOAEL (rat [10]) of under 300 mg/kg/day and an LEL (rabbit; [25]) of 1000 mg/kg/day. It also gave an LOAEL (rabbit; [25]) of 1000 mg/kg/day, an NEL (rabbit; [25]) of 200 mg/kg/day and an NOAEL (rabbit; [25]) of 200 mg/kg/day. It also gave an LEL (rabbit; [26]) of 1000 mg/kg/day, an LOAEL (rabbit; [26]) of 1000 mg/kg/day and an NEL (rabbit; [26]) of 200 mg/kg/day. It also gave an NOAEL (rabbit; [26]) of 200 mg/kg/day, an LOAEL (dog [11]; [27]) of 53.7 mg/kg/day and an NOAEL (dog [11]; [27]) of 5.33 mg/kg/day. The LEL (dog [11]; [28]) was 5.33 mg/kg/day and the NEL (dog [11]; [28]) was under 5.33 mg/kg/day.
